Results from patent publication EP0662819B1, “AN ANTIVIRALLY ACTIVE PHARMACEUTICAL OIL-IN-WATER EMULSION CONTAINING 9-[(2-HYDROXYETHOXY)METHYL]GUANINE (ACYCLOVIR) OR A SALT OR ESTER THEREOF” (A/S GEA Farmaceutisk Fabrik, priority 1992, dated 1994).
Converted amounts (≈) assume the structure as drawn.

Experiment: Solubility of acyclovir in glycerol formal/water and glycerol formal/propylene glycol/water mixtures
Format: physicochemical
Conditions: room temperature
Method: A surplus of acyclovir is added to glycerol formal/water mixtures and glycerol formal/propylene glycol/water mixtures at room temperature, and the mixtures are then stirred for 2 hours and filtered. Subsequent to adequate dilution with 0.1 N NaOH the solutions are spectrophotometrically measured at 260 nm against 0.1 N NaOH. A 0.01% solution of acyclovir in 0.1 N NaOH is used as standard.

solubility at 2 h (0 percent by volume glycerol formal in water, stirred 2 hours): 1170 µg/mL (≈ 5.2 mM)
solubility at 2 h (10% glycerol formal in water, organic solvent or mixture, 10 percent by volume glycerol formal in water, stirred 2 hours): 1630 µg/mL (≈ 7.24 mM)
solubility at 2 h (25% glycerol formal in water, organic solvent or mixture, 25 percent by volume glycerol formal in water, stirred 2 hours): 2640 µg/mL (≈ 11.7 mM)
solubility at 2 h (50% glycerol formal in water, organic solvent or mixture, 50 percent by volume glycerol formal in water, stirred 2 hours): 4370 µg/mL (≈ 19.4 mM)
solubility at 2 h (60% glycerol formal in water, organic solvent or mixture, 60 percent by volume glycerol formal in water, stirred 2 hours): 4670 µg/mL (≈ 20.7 mM)
solubility at 2 h (75% glycerol formal in water, organic solvent or mixture, 75 percent by volume glycerol formal in water, stirred 2 hours): 4150 µg/mL (≈ 18.4 mM)
solubility at 2 h (90% glycerol formal in water, organic solvent or mixture, 90 percent by volume glycerol formal in water, stirred 2 hours): 2970 µg/mL (≈ 13.2 mM)
solubility at 2 h (glycerol formal/water 40/20, organic solvent or mixture, Glycerol formal/propylene glycol/water 40/0/20 g/g/ml): 5730 µg/mL (≈ 25.4 mM)
solubility at 2 h (organic solvent or mixture, 100 percent by volume glycerol formal, stirred 2 hours): 3270 µg/mL (≈ 14.5 mM)
solubility at 2 h (organic solvent or mixture, Glycerol formal/propylene glycol/water 11/29/20 g/g/ml): 4710 µg/mL (≈ 20.9 mM)
solubility at 2 h (organic solvent or mixture, Glycerol formal/propylene glycol/water 20/20/20 g/g/ml): 4600 µg/mL (≈ 20.4 mM)
solubility at 2 h (organic solvent or mixture, Glycerol formal/propylene glycol/water 30/10/20 g/g/ml): 5200 µg/mL (≈ 23.1 mM)
solubility at 2 h (propylene glycol/water 40/20, organic solvent or mixture, Glycerol formal/propylene glycol/water 0/40/20 g/g/ml): 3440 µg/mL (≈ 15.3 mM)
SMILES: Nc1nc2c(ncn2COCCO)c(=O)[nH]1 [acyclovir, 9-[(2-hydroxyethoxy)methyl]guanine]
